Experimental data taken from paper PMC9382192, “Combined treatment with epigenetic agents enhances anti-tumor activity of MAGE-D4 peptide-specific T cells by upregulating the MAGE-D4 expression in glioma” (Frontiers in Oncology, 2022).

Tests used:
U87 = experiment: Granzyme A and perforin ELISA, T cells with U87; type: cell-based, human; conditions: T cells stimulated by TSA-treated U87, E:T 50:1, 4 h
Experimental: The human glioma cell lines (U87-MG and U251) were obtained from the Cell Bank of Type Culture Collection of the Chinese Academy of Science (Shanghai, China). […] A3656), valproic acid (VPA, CAS No. 99-66-1), and trichostatin A (TSA, CAS No. 58880-19-6) were purchased from Sigma-Aldrich Corporation (St. Louis, MO, USA). DAC and TSA were dissolved in DMSO to a concentration of 10 mM. Aliquots were stored at −80°C and diluted with media before being used. […] Four hours later, suspended cells were collected for CD107a flow cytometry, meanwhile, the supernatant was collected and analyzed with granzyme A and perforin ELISA kit (Cloud-Clone Corporation, Wuhan, China) at 450 nm, and the LDH kit (Promega, USA) at 490 nm. The percentage of specific lysis was calculated using the following formula: [(experimental release − spontaneous release)/(maximum release − spontaneous release)] × 100. […] Then, the cytotoxicity assay was measured and calculated as mentioned above.

U87 cell-derived tumors = experiment: In vivo xenograft tumor model; set-up: species or system BALB/C nude female mice
Experimental: Eighteen BALB/C nude female mice aged 4 weeks were provided by the Guangxi Experimental Animal Center. The mice were placed in a light-controlled room at 24 ± 1 °C (light: 7:00–19:00 h, dark: 19:00–7:00 h) and fed under specific pathogen-free conditions. All protocols followed the guidelines of the National Research Council for the Care and Use of Laboratory Animals and were approved by the Animal Ethics Committee of Guangxi Medical University. To develop a xenograft model, 4 × 10^6 U87 cells were inoculated into the flanks of the mice subcutaneously. Two weeks later, mice simultaneously received intraperitoneal peritumorally injections of TSA (0.5 mg/kg) and 1 × 10^7 peptides loaded on CD8^+ T cells, respectively. Every […], tumor volumes were measured simultaneously with a caliper. Mice were sacrificed by euthanasia when visibly ill. Mice injected with negative peptide-induced CTLs and CTLs without peptides were included as controls. The tumor volumes were calculated using the following formula: tumor volume = [(width2 × length)/2].

MAGE-D4 = MAGE-D4 expression (qRT-PCR, Western blot) in U87; type: cell-based, human; conditions: U87, compared to the control (0.09% DMSO); 1 μM TSA 24 h
Experimental: The human glioma cell lines (U87-MG and U251) were obtained from the Cell Bank of Type Culture Collection of the Chinese Academy of Science (Shanghai, China). […] A3656), valproic acid (VPA, CAS No. 99-66-1), and trichostatin A (TSA, CAS No. 58880-19-6) were purchased from Sigma-Aldrich Corporation (St. Louis, MO, USA). DAC and TSA were dissolved in DMSO to a concentration of 10 mM. Aliquots were stored at -80°C and diluted with media before being used. Drug treatments were divided into seven groups: (1) DAC group: cells were cultured in medium on the presence of 1 μM DAC for 120 h; (2) VPA group: cells were grown in medium containing 1 mM VPA for 120 h; (3) TSA group: cells were cultured in medium supplemented with 1 μM TSA for 24 h; (4) D + V group: cells were cultured with 1 μM DAC and 1 mM VPA for 120 h; (5) D + T group: cells were cultured with 1 μM DAC for 120 h, followed by 1 μM TSA for 24 h; (6) Control group: cells were cultured with 0.09% DMSO, which is the highest concentration of DMSO used in this study in consideration of the potential toxicity of DMSO to living cells. […] Relative intensities of the bands were normalized with GAPDH and analyzed by ImageJ (NIH, Maryland, USA).

IL-2 = IL-2 ELISA of DC/T-cell co-culture supernatant; type: cell-based, human; conditions: 72 h co-culture supernatant, versus negative control peptide
Experimental: Production of cytokines in the supernatants was determined using commercially available ELISA kits (Cloud-Clone Corporation, Wuhan, China) according to the protocol of the manufacturer. Approximately 50 μl of supernatant and different concentration standards were added and mixed with 100 μl of horseradish peroxidase (HRP) labeled detection antibody against a 96-well plate, respectively, except for the blank control. After incubation at 37°C for 60 min, we washed the plate five times. Add substrate A and substrate B 50 μl respectively, incubate for 15min in a 37°C incubator in dark. Then, 50 μl of stop solution was added and a 450 nm absorbance value (OD value) was measured within 15 min. The regression equation of the standard curve is calculated according to the concentration of the standard substance and the OD value, and the corresponding sample concentration is calculated on the basis of the regression equation.

With `CC(/C=C/C(=O)NO)=C\[C@@H](C)C(=O)c1ccc(N(C)C)cc1` [TSA, trichostatin A] the “granzyme A and perforin secreted by T cells” value (U87) was “more granzyme A and perforin”, the tumor volume (U87 cell-derived tumors; U87 pre-treated with TSA versus U87, both inoculated with P8-specific T cells, TSA 0.5 mg/kg) was “smaller” and the tumor growth (U87 cell-derived tumors; group treated with TSA versus group treated without TSA) was “slower”. For the same molecule, the “MAGE-D4 mRNA and protein expression” value (MAGE-D4) was “higher”.

For CLPPPNVIL [Peptide P8], the “IL-2 secreted by DC-stimulated T cells” value (IL-2) was “higher IL-2”, the “granzyme A and perforin secreted by T cells” value (U87) was “the most granzyme A and perforin” and the tumor volume (U87 cell-derived tumors; U87 xenograft, 1 × 10^7 peptide-specific CD8+ T cells, compared with DC + Tc and NC-DC + Tc groups) was “significantly reduced”.
